Results taken from the supplement of paper PMC12137928.
Structures can show the parent of a compound that is named as a salt.

System: HCT116
Conditions: 72 h
How it was run: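 For IC50 and maximal efficacy, four-parameter Hill fits were used. Input values were CellTiter-Glo luminescence from HCT116 cells seeded at 250 per well in 1536-well plates, normalized to vehicle (0%) and positive control (-100%). Pattern correction followed normalization.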

Row | SMILES | IC50 cell viability (ICRF193 0 nM) [µM] | IC50 cell viability (ICRF193 200 nM) [µM]
1 | CCCN(CCC)CCc1cccc2c1CC(=O)N2 [Ropinirole] | > 45.8 | > 45.8
2 | CCCN1CCCC[C@H]1C(=O)Nc1c(C)cccc1C [Ropivacaine hydrochloride] | > 45.8 | > 45.8
3 | CN(CCOc1ccc(CC2SC(=O)NC2=O)cc1)c1ccccn1 (stereo unspecified) [Rosiglitazone] | > 45.8 | > 45.8
4 | CC(C)c1nc(N(C)S(C)(=O)=O)nc(-c2ccc(F)cc2)c1/C=C/[C@@H](O)C[C@@H](O)CC(=O)O [Rosuvastatin calcium (Crestor)] | > 45.8 | > 45.8
5 | CCCN(CCc1cccs1)[C@H]1CCc2c(O)cccc2C1 [Rotigotine] | > 45.8 | > 45.8
6 | CC(=O)OCC(=O)NCCCOc1cccc(CN2CCCCC2)c1 [Roxatidine acetate hydrochloride] | > 45.8 | > 45.8
7 | CC[C@H]1OC(=O)[C@H](C)[C@@H](O[C@H]2C[C@@](C)(OC)[C@@H](O)[C@H](C)O2)[C@H](C)[C@@H](O[C@@H]2O[C@H](C)C[C@H](N(C)C)[C@H]2O)[C@](C)(O)C[C@@H](C)/C(=N\OCOCCOC)[C@H](C)[C@@H](O)[C@]1(C)O [Roxithromycin] | > 45.8 | > 45.8
8 | CNCc1ccc(-c2[nH]c3cc(F)cc4c3c2CCNC4=O)cc1 [Rucaparib] | > 45.8 | > 45.8
9 | NC(=O)c1cn(Cc2c(F)cccc2F)nn1 [Rufinamide] | > 45.8 | > 45.8
10 | C[C@@H]1O[C@@H](OC[C@H]2O[C@@H](Oc3c(-c4ccc(O)c(O)c4)oc4cc(O)cc(O)c4c3=O)[C@H](O)[C@@H](O)[C@@H]2O)[C@H](O)[C@H](O)[C@H]1O [Rutin trihydrate] | > 45.8 | > 45.8
11 | CCOC(=O)/C=C(C)/C=C/C[C@@H](C)CCCC(C)C [S-Hydroprene] | > 45.8 | > 45.8
12 | CC(OC(=O)OC1CCCCC1)OC(=O)C1=C(CSc2nnnn2CCN(C)C)CS[C@@H]2[C@H](NC(=O)Cc3csc(N)n3)C(=O)N12 (stereo partly specified) [SCE 2174] | > 45.8 | > 45.8
13 | CCCCCCCCCCCCOC(=O)CS(=O)(=O)O [SODIUM LAURYL SULFOACETATE] | > 45.8 | > 45.8
14 | CCCCC(CC)CCC(CC(C)C)OS(=O)(=O)O (stereo unspecified) [SODIUM TETRADECYL SULFATE] | > 45.8 | > 45.8
15 | O=C1C(CC[S+]([O-])c2ccccc2)C(=O)N(c2ccccc2)N1c1ccccc1 (stereo unspecified) [SULFINPYRAZONE] | > 45.8 | > 45.8
16 | O=C1NS(=O)(=O)c2ccccc21 [Saccharin] | > 45.8 | > 45.8
17 | C[C@H](NCc1ccc(OCc2cccc(F)c2)cc1)C(N)=O [Safinamide] | > 45.8 | > 45.8
18 | CC(C)(C)NCC(O)c1ccc(O)c(CO)c1 (stereo unspecified) [Salbutamol] | > 45.8 | > 45.8
19 | OCc1ccccc1O [Salicyl alcohol] | > 45.8 | > 45.8
20 | NC(=O)c1ccccc1O [Salicylamide] | > 45.8 | > 45.8

Row | SMILES | IC50 cell viability (ICRF193 0 nM) [µM] | IC50 cell viability (ICRF193 200 nM) [µM]
21 | OC[C@H]1O[C@@H](OCCc2ccc(O)cc2)[C@H](O)[C@@H](O)[C@@H]1O [Salidroside] | > 45.8 | > 45.8
22 | O=C(Oc1ccccc1C(=O)O)c1ccccc1O [Salsalate] | > 45.8 | > 45.8
23 | O=C(O)c1cn(-c2ccc(F)cc2)c2cc(N3CCNCC3)c(F)cc2c1=O [Sarafloxacin hydrochloride] | > 45.8 | > 45.8
24 | COc1cccc(CCc2ccccc2OCC(CN(C)C)OC(=O)CCC(=O)O)c1 (stereo unspecified) [Sarpogrelate hydrochloride] | > 45.8 | > 45.8
25 | N#C[C@@H]1C[C@@H]2C[C@@H]2N1C(=O)[C@@H](N)C12CC3CC(CC(O)(C3)C1)C2 [Saxagliptin] | > 45.8 | > 45.8
26 | COc1cc2c(c(OC)c1OC)-c1c(cc3c(c1OC)OCO3)C[C@H](C)[C@@](C)(O)C2 [Schisandrol B] | > 45.8 | > 45.8
27 | CN1[C@@H]2C[C@@H](OC(=O)[C@H](CO)c3ccccc3)C[C@H]1[C@@H]1O[C@@H]12 [Scopolamine hydrobromide] | > 45.8 | > 45.8
28 | C[N+]1(C)[C@@H]2C[C@@H](OC(=O)[C@H](CO)c3ccccc3)C[C@H]1[C@@H]1O[C@@H]12 [Scopolamine methylbromide] | > 45.8 | > 45.8
29 | Cc1ncc([N+](=O)[O-])n1CC(C)O (stereo unspecified) [Secnidazole] | > 45.8 | > 45.8
30 | C#CCN(C)[C@H](C)Cc1ccccc1 [Selegiline hydrochloride] | > 45.8 | > 45.8
31 | C[Se]CC[C@H](N)C(=O)O [Selenomethionine] | > 45.8 | > 45.8
32 | C=C1/C(=C\C=C2/CCC[C@]3(C)[C@@H]([C@H](C)/C=C/C=C/C(O)(CC)CC)CC[C@@H]23)C[C@@H](O)C[C@@H]1O [Seocalcitol] | > 45.8 | > 45.8
33 | CC1=C(C)C(=O)C(C(CCCCCC(=O)O)c2ccccc2)=C(C)C1=O (stereo unspecified) [Seratrodast] | > 45.8 | > 45.8
34 | C=CCN.ClCC1CO1 (stereo unspecified) [Sevelamer Hydrochloride (Technical Grade)] | > 45.8 | > 45.8
35 | FCOC(C(F)(F)F)C(F)(F)F [Sevoflurane] | > 45.8 | > 45.8
36 | Cc1cc(O)c2c(c1)O[C@@]1(C)CC[C@H]3C(C)(C)CCC[C@]34CO[C@@H]2[C@H]41 [Siccanin] | > 45.8 | > 45.8
37 | CCCc1nn(C)c2c(=O)[nH]c(-c3cc(S(=O)(=O)N4CCN(C)CC4)ccc3OCC)nc12 [Sildenafil citrate] | > 45.8 | > 45.8
38 | C[C@H](Cc1cc2c(c(C(N)=O)c1)N(CCCO)CC2)NCCOc1ccccc1OCC(F)(F)F [Silodosin] | > 45.8 | > 45.8
39 | COc1ccc2c(O[C@@H]3C[C@H]4C(=O)N[C@]5(C(=O)NS(=O)(=O)C6CC6)C[C@H]5/C=C\CCCCN(C)C(=O)[C@@H]4C3)cc(-c3nc(C(C)C)cs3)nc2c1C [Simeprevir] | > 45.8 | > 45.8
40 | CCCc1ccc(OCC(=O)N2CCN(C(=O)COc3ccc(CCC)cc3OC)CC2)c(OC)c1 [Simetride] | > 45.8 | > 45.8

Row | SMILES | IC50 cell viability (ICRF193 0 nM) [µM] | IC50 cell viability (ICRF193 200 nM) [µM]
41 | CSCC[C@H](NC(=O)[C@H](Cc1ccc(OS(=O)(=O)O)cc1)NC(=O)[C@@H](N)CC(=O)O)C(=O)NCC(=O)N[C@@H](Cc1c[nH]c2ccccc12)C(=O)N[C@@H](CCSC)C(=O)N[C@@H](CC(=O)O)C(=O)N[C@@H](Cc1ccccc1)C(N)=O [Sincalide] | > 45.8 | > 45.8
42 | N[C@@H]1CN(c2c(F)cc3c(=O)c(C(=O)O)cn([C@@H]4C[C@@H]4F)c3c2Cl)CC12CC2 [Sitafloxacin hydrate] | > 45.8 | > 45.8
43 | N[C@@H](CC(=O)N1CCn2c(nnc2C(F)(F)F)C1)Cc1cc(F)c(F)cc1F [Sitagliptin] | > 45.8 | > 45.8
44 | Cc1cc2c(cc1CC(=O)c1sccc1S(=O)(=O)Nc1onc(C)c1Cl)OCO2 [Sitaxentan] | > 45.8 | > 45.8
45 | CC(C)(C)C(=O)Oc1ccc(S(=O)(=O)Nc2ccccc2C(=O)NCC(=O)O)cc1 [Sivelestat sodium hydrate] | > 45.8 | > 45.8
46 | CC(C)COC(=O)OCN1C(=O)CN(CCN2CC(=O)N(COC(=O)OCC(C)C)C(=O)C2)CC1=O [Sobuzoxane] | > 45.8 | > 45.8
47 | O=S(=O)(O)CC(S)CS (stereo unspecified) [Sodium 2,3-dimercaptopropanesulfonate monohydrate] | > 45.8 | > 45.8
48 | O=S(=O)(O)CCS [Sodium 2-mercaptoethanesulfonate] | > 45.8 | > 45.8
49 | Oc1ccccc1-c1ccccc1 [Sodium 2-phenylphenate tetrahydrate] | > 45.8 | > 45.8
50 | Cc1ccc(C(=O)C(=O)O)cc1C [Sodium 3, 4-dimethylphenyl-glyoxylate] | > 45.8 | > 45.8
51 | O=C(O)CCCc1ccccc1 [Sodium 4-phenylbutyrate] | > 45.8 | > 45.8
52 | O=C([O-])CC([S-])C(=O)[O-].[Au+].[Na+].[Na+] (stereo unspecified) [Sodium aurothiomalate(I)] | > 45.8 | > 45.8
53 | O=C(O)c1cc(=O)c2c(OCC(O)COc3cccc4oc(C(=O)O)cc(=O)c34)cccc2o1 [Sodium cromoglycate] | > 45.8 | > 45.8
54 | CCCCCCCCCC(=O)NO [Sodium decanehydroxamate] | > 45.8 | > 45.8
55 | C[C@H](CCC(=O)O)[C@H]1CC[C@H]2[C@@H]3CC[C@@H]4C[C@H](O)CC[C@]4(C)[C@H]3C[C@H](O)[C@]12C [Sodium deoxycholate monohydrate] | > 45.8 | > 45.8
56 | CCCCCCCCCCCCOS(=O)(=O)[O-].[Na+] [Sodium dodecyl sulfate] | > 45.8 | > 45.8
57 | CCCC(=O)Nc1c(I)cc(I)c(CC(CC)C(=O)O)c1I (stereo unspecified) [Sodium tyropanoate] | > 45.8 | > 45.8
58 | O=c1[nH]c(=O)c2[nH]c(O)nc2[nH]1 [Sodium urate] | > 45.8 | > 45.8
